Test results as given in PubChem BioAssay AID1259407 (Chemical Carcinogenesis Research Information System (CCRIS), 2018).
Active and inactive are the calls of the source. How the calls were made is not given here.

System: CCRIS mutagenicity, Ames/micronucleus/aberration tests
Assay: CCRIS mutagenicity studies
[1] = Test System: AMES SALMONELLA TYPHIMURIUM, Strain/Indicator: TA98, Metabolic Activation: HAMSTER, LIVER, S-9, AROCLOR 1254 (10%), Method: PREINCUBATION
[2] = Test System: AMES SALMONELLA TYPHIMURIUM, Strain/Indicator: TA98, Metabolic Activation: NONE, Method: PREINCUBATION
[3] = Test System: AMES SALMONELLA TYPHIMURIUM, Strain/Indicator: TA98, Metabolic Activation: RAT, LIVER, S-9, AROCLOR 1254 (10%), Method: PREINCUBATION
[4] = Test System: AMES SALMONELLA TYPHIMURIUM, Strain/Indicator: TA100, Metabolic Activation: HAMSTER, LIVER, S-9, AROCLOR 1254 (10%), Method: PREINCUBATION
[5] = Test System: AMES SALMONELLA TYPHIMURIUM, Strain/Indicator: TA100, Metabolic Activation: NONE, Method: PREINCUBATION
[6] = Test System: AMES SALMONELLA TYPHIMURIUM, Strain/Indicator: TA100, Metabolic Activation: RAT, LIVER, S-9, AROCLOR 1254 (10%), Method: PREINCUBATION
[7] = Test System: AMES SALMONELLA TYPHIMURIUM, Strain/Indicator: TA1535, Metabolic Activation: HAMSTER, LIVER, S-9, AROCLOR 1254 (10%), Method: PREINCUBATION
[8] = Test System: AMES SALMONELLA TYPHIMURIUM, Strain/Indicator: TA1535, Metabolic Activation: NONE, Method: PREINCUBATION
[9] = Test System: AMES SALMONELLA TYPHIMURIUM, Strain/Indicator: TA1537, Metabolic Activation: HAMSTER, LIVER, S-9, AROCLOR 1254 (10%), Method: PREINCUBATION
[10] = Test System: AMES SALMONELLA TYPHIMURIUM, Strain/Indicator: TA1537, Metabolic Activation: NONE, Method: PREINCUBATION

CN(C)c1ccc(CCO)cc1
mutagenic call (Test System: AMES SALMONELLA TYPHIMURIUM, Strain/Indicator: TA98, Metabolic Activation: HAMSTER, LIVER, S-9, AROCLOR 1254 (5, 10, 20%), Method: STANDARD PLATE): active; positive
mutagenic call (Test System: AMES SALMONELLA TYPHIMURIUM, Strain/Indicator: TA98, Metabolic Activation: RAT, LIVER, S-9, AROCLOR 1254 (20%), Method: STANDARD PLATE): active; positive
mutagenic call (Test System: AMES SALMONELLA TYPHIMURIUM, Strain/Indicator: TA98, Metabolic Activation: RAT, LIVER, S-9, AROCLOR 1254, HAMSTER, LIVER, S-9, AROCLOR 1254, Method: STANDARD PLATE): active; positive
mutagenic call (Test System: AMES SALMONELLA TYPHIMURIUM, Strain/Indicator: TA1538, Metabolic Activation: HAMSTER, LIVER, S-9, AROCLOR 1254 (2.5-20%), Method: STANDARD PLATE): active; positive
mutagenic call (Test System: AMES SALMONELLA TYPHIMURIUM, Strain/Indicator: TA1538, Metabolic Activation: RAT, LIVER, S-9, AROCLOR 1254 (5, 10, 20%), Method: STANDARD PLATE): active; positive
mutagenic call (Test System: AMES SALMONELLA TYPHIMURIUM, Strain/Indicator: TA1538, Metabolic Activation: RAT, LIVER, S-9, AROCLOR 1254, HAMSTER, LIVER, S-9, AROCLOR 1254, Method: STANDARD PLATE): active; positive
mutagenic call (Test System: MOUSE LYMPHOMA, Strain/Indicator: L5178Y (TK+/TK-), Metabolic Activation: RAT, LIVER, S-9, AROCLOR 1254, Method: SUSPENSION/PLATE): active; positive. reevaluation of results: inconclusive
mutagenic call (Test System: Mouse lymphoma, Strain/Indicator: L5178Y (tk+/tk-), Metabolic Activation: None, Method: Suspension/plate): inactive; negative

COc1cc2c(cc1OC)[C@@]13CCN4CC5=CCO[C@H]6CC(=O)N2[C@H]1[C@H]6[C@H]5C[C@H]43
mutagenic call [1]: inactive; negative
mutagenic call [2]: inactive; negative
mutagenic call [3]: inactive; negative
mutagenic call [4]: inactive; negative
mutagenic call [5]: inactive; negative
mutagenic call [6]: inactive; negative
mutagenic call [7]: inactive; negative
mutagenic call [8]: inactive; negative
mutagenic call (Test System: AMES SALMONELLA TYPHIMURIUM, Strain/Indicator: TA1535, Metabolic Activation: RAT, LIVER, S-9, AROCLOR 1254 (10%), Method: PREINCUBATION): inactive; negative
mutagenic call [9]: inactive; negative
mutagenic call [10]: inactive; negative
mutagenic call (Test System: AMES SALMONELLA TYPHIMURIUM, Strain/Indicator: TA1537, Metabolic Activation: RAT, LIVER, S-9, AROCLOR 1254 (10%), Method: PREINCUBATION): inactive; negative

C=C(C)C#N
mutagenic call (Test System: AMES SALMONELLA TYPHIMURIUM, Strain/Indicator: TA97, Metabolic Activation: HAMSTER, LIVER, S-9, AROCLOR 1254 (10%), Method: PREINCUBATION): inactive; negative
mutagenic call (Test System: AMES SALMONELLA TYPHIMURIUM, Strain/Indicator: TA97, Metabolic Activation: HAMSTER, LIVER, S-9, AROCLOR 1254 (30%), Method: PREINCUBATION): inactive; negative
mutagenic call (Test System: AMES SALMONELLA TYPHIMURIUM, Strain/Indicator: TA97, Metabolic Activation: NONE, Method: PREINCUBATION): inactive; negative
mutagenic call (Test System: AMES SALMONELLA TYPHIMURIUM, Strain/Indicator: TA97, Metabolic Activation: RAT, LIVER, S-9, AROCLOR 1254 (10 OR 30%), Method: PREINCUBATION): inactive; negative
mutagenic call [1]: inactive; negative
mutagenic call (Test System: AMES SALMONELLA TYPHIMURIUM, Strain/Indicator: TA98, Metabolic Activation: HAMSTER, LIVER, S-9, AROCLOR 1254 (30%), Method: PREINCUBATION): inactive; negative
mutagenic call [2]: inactive; negative
mutagenic call [3]: inactive; negative
mutagenic call [4]: inactive; negative
mutagenic call (Test System: AMES SALMONELLA TYPHIMURIUM, Strain/Indicator: TA100, Metabolic Activation: HAMSTER, LIVER, S-9, AROCLOR 1254 (30%), Method: PREINCUBATION): inactive; negative
mutagenic call [5]: inactive; negative
mutagenic call (Test System: AMES SALMONELLA TYPHIMURIUM, Strain/Indicator: TA100, Metabolic Activation: RAT, LIVER, S-9, AROCLOR 1254 (10 OR 30%), Method: PREINCUBATION): inactive; negative
mutagenic call [7]: inactive; negative
mutagenic call (Test System: AMES SALMONELLA TYPHIMURIUM, Strain/Indicator: TA1535, Metabolic Activation: HAMSTER, LIVER, S-9, AROCLOR 1254 (30%), Method: PREINCUBATION): inactive; negative
mutagenic call [8]: inactive; negative
mutagenic call (Test System: AMES SALMONELLA TYPHIMURIUM, Strain/Indicator: TA1535, Metabolic Activation: RAT, LIVER, S-9, AROCLOR 1254 (10 OR 30%), Method: PREINCUBATION): inactive; negative
mutagenic call [9]: inactive; negative
mutagenic call (Test System: AMES SALMONELLA TYPHIMURIUM, Strain/Indicator: TA1537, Metabolic Activation: HAMSTER, LIVER, S-9, AROCLOR 1254 (30%), Method: PREINCUBATION): inactive; negative
mutagenic call [10]: inactive; negative
mutagenic call (Test System: AMES SALMONELLA TYPHIMURIUM, Strain/Indicator: TA1537, Metabolic Activation: RAT, LIVER, S-9, AROCLOR 1254 (10 OR 30%), Method: PREINCUBATION): inactive; negative
mutagenic call (Test System: UDS HUMAN HEPATOMA HEPG2 CELLS, Strain/Indicator: THY INCORP, Metabolic Activation: NONE, Method: LIQUID SCINTILLATION COUNTING): active; positive

OC1C=C2c3cc4ccccc4cc3-c3cccc(c32)C1O (configuration not stated)
mutagenic call (Test System: AMES SALMONELLA TYPHIMURIUM, Strain/Indicator: TA100, Metabolic Activation: RAT, LIVER, S-9, AROCLOR 1254, Method: STANDARD PLATE): active; positive

O=C1c2ccccc2CN2C(=O)c3ccccc3CN12
mutagenic call (Test System: AMES SALMONELLA TYPHIMURIUM, Strain/Indicator: TA98, Metabolic Activation: MOUSE, LIVER, S-9, PHENOBARBITAL AND 5,6-BENZOFLAVONE, Method: STANDARD PLATE): inactive; negative
mutagenic call (Test System: AMES SALMONELLA TYPHIMURIUM, Strain/Indicator: TA98, Metabolic Activation: NONE, Method: STANDARD PLATE): inactive; negative
mutagenic call (Test System: AMES SALMONELLA TYPHIMURIUM, Strain/Indicator: TA100, Metabolic Activation: MOUSE, LIVER, S-9, PHENOBARBITAL AND 5,6-BENZOFLAVONE, Method: STANDARD PLATE): inactive; negative
mutagenic call (Test System: AMES SALMONELLA TYPHIMURIUM, Strain/Indicator: TA100, Metabolic Activation: NONE, Method: STANDARD PLATE): inactive; negative
mutagenic call (Test System: AMES SALMONELLA TYPHIMURIUM, Strain/Indicator: TA102, Metabolic Activation: MOUSE, LIVER, S-9, PHENOBARBITAL AND 5,6-BENZOFLAVONE, Method: STANDARD PLATE): inactive; negative
mutagenic call (Test System: AMES SALMONELLA TYPHIMURIUM, Strain/Indicator: TA102, Metabolic Activation: NONE, Method: STANDARD PLATE): inactive; negative

O=[N+]([O-])c1cccc2cc3ccccc3cc12
mutagenic call [2]: active; positive
mutagenic call [3]: active; positive
mutagenic call [5]: active; positive
mutagenic call [6]: active; positive

CCC(=O)N=c1sn(C(=O)CC)c2ccc([N+](=O)[O-])cc12
mutagenic call (Test System: AMES SALMONELLA TYPHIMURIUM, Strain/Indicator: TA100, Metabolic Activation: S-9, Method: STANDARD PLATE): active; positive

CC1(C)COCN1
mutagenic call (End Point: In vitro chromosomal aberrations, Test System: Chinese hamster ovary (CHO) cells, Metabolic Activation: None): active; positive
mutagenic call (End Point: In vitro chromosomal aberrations, Test System: Chinese hamster ovary (CHO) cells, Metabolic Activation: S-9): active; positive
mutagenic call (Test System: Mouse lymphoma, Strain/Indicator: L5178Y (TK+/TK-), Metabolic Activation: None, Method: Not specified by DPR): active; positive (purity 78%)
mutagenic call (Test System: Mouse lymphoma, Strain/Indicator: L5178Y (TK+/TK-), Metabolic Activation: S-9, Method: Not specified by DPR): active; positive (purity 78%)
